The source of these data is patent US10336732B2, “1-heterocyclyl isochromanyl compounds and analogs for treating CNS disorders” (Sunovion Pharmaceuticals Inc., priority 2015, dated 2019).

The test concerns mice. Nature of the test: Neuropharmacological assay (SmartCube), behavioral signature of compound-treated mice. The class given is in vivo. Particulars: i.p. 15 min before behavioral test, most efficacious dose(s) of 3 doses. A digest of the protocol: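 Read-out is an automated video-based behavioral signature, scored as per-class probabilities (e.g., anxiolytic, antidepressant) against reference compounds. Dosing was i.p. at three doses, 15 min pre-test, in NMP, polyethylene glycol and propylene glycol. Values shown are from the most efficacious dose(s).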

As for `c1c2c(cc3c1OCO3)[C@H]([C@@H]1CCCN1)OCC2` [Compound I-54, (S)-2-((R)-7,8-dihydro-5H-[1,3]dioxolo[4,5-g]isochromen-5-yl)pyrrolidine], the “AD: ADHD (probability that behavioral signature matches class)” value (“AD: ADHD” for short) was “+ (LOQ ≤ + <5%)”, the “AG: analgesic (probability that behavioral signature matches class)” value (shortened to “AG: analgesic”) is recorded as “++ (5% ≤ ++ <25%)”, the “AX: anxiolytic (probability that behavioral signature matches class)” value (“AX: anxiolytic” for short) is reported as “+++ (25% ≤ +++ <50%)” and the “CE: cognitive enhancer (probability that behavioral signature matches class)” value (“CE: cognitive enhancer” for short) is “++ (5% ≤ ++ <25%)”. Moreover, the “DP: anti-depressant (probability that behavioral signature matches class)” value (“DP: anti-depressant” for short) was “+++ (25% ≤ +++ <50%)”, the “HA: hallucinogen (probability that behavioral signature matches class)” value (from here on “HA: hallucinogen”) is given as “+ (LOQ ≤ + <5%)”, the “MS: mood stabilizer (probability that behavioral signature matches class)” value (shortened to “MS: mood stabilizer”) is reported as “++ (5% ≤ ++ <25%)” and the “PS: anti-psychotic (probability that behavioral signature matches class)” value (shortened to “PS: anti-psychotic”) is given as “++ (5% ≤ ++ <25%)”. In addition, the “SD: sedative hypnotic (probability that behavioral signature matches class)” value (from here on “SD: sedative hypnotic”) is listed as “+ (LOQ ≤ + <5%)”, the “UN: uncharacterized CNS activity (probability that behavioral signature matches class)” value (“UN: uncharacterized CNS activity” below) is “+ (LOQ ≤ + <5%)” and the “XG: anxiogenic (probability that behavioral signature matches class)” value (from here on “XG: anxiogenic”) was “+ (LOQ ≤ + <5%)”.
Take `c1cc(-c2ccc3c(c2)CCO[C@@H]3[C@@H]2CCCN2)on1` [Compound I-55, 5-((S)-1-((S)-pyrrolidin-2-yl)isochroman-6-yl)isoxazole]: the “AD: ADHD” value is on record as “+ (LOQ ≤ + <5%)”, the “AG: analgesic” value was “+ (LOQ ≤ + <5%)”, the “AX: anxiolytic” value is recorded as “+ (LOQ ≤ + <5%)” and the “CE: cognitive enhancer” value is listed as “+ (LOQ ≤ + <5%)”. For the same molecule, the “DP: anti-depressant” value is “+ (LOQ ≤ + <5%)”, the “HA: hallucinogen” value is on record as “+ (LOQ ≤ + <5%)”, the “MS: mood stabilizer” value is reported as “+ (LOQ ≤ + <5%)” and the “PS: anti-psychotic” value was “+ (LOQ ≤ + <5%)”. In addition, the “SD: sedative hypnotic” value is “+ (LOQ ≤ + <5%)”, the “UN: uncharacterized CNS activity” value is given as “+ (LOQ ≤ + <5%)” and the “XG: anxiogenic” value is on record as “+ (LOQ ≤ + <5%)”.
In the case of `c1cc(-c2ccc3c(c2)CCO[C@H]3[C@@H]2CCCN2)on1` [Compound I-56, 5-((R)-1-((S)-pyrrolidin-2-yl)isochroman-6-yl)isoxazole], the “AD: ADHD” value is reported as “++ (5% ≤ ++ <25%)”, the “AG: analgesic” value is on record as “+++ (25% ≤ +++ <50%)”, the “AX: anxiolytic” value is given as “++ (5% ≤ ++ <25%)” and the “CE: cognitive enhancer” value is “++ (5% ≤ ++ <25%)”. Also, the “DP: anti-depressant” value is reported as “+++ (25% ≤ +++ <50%)”, the “HA: hallucinogen” value is given as “+ (LOQ ≤ + <5%)”, the “MS: mood stabilizer” value is on record as “++ (5% ≤ ++ <25%)” and the “PS: anti-psychotic” value was “++ (5% ≤ ++ <25%)”. Moreover, the “SD: sedative hypnotic” value is “+ (LOQ ≤ + <5%)”, the “UN: uncharacterized CNS activity” value is “+ (LOQ ≤ + <5%)” and the “XG: anxiogenic” value was “+ (LOQ ≤ + <5%)”.
On to `c1ccc(-c2ccc3c(c2)CCO[C@@H]3[C@@H]2CCCN2)nc1` [Compound I-57, 2-((S)-1-((S)-pyrrolidin-2-yl)isochroman-6-yl)pyridine], for which the “AD: ADHD” value is on record as “+ (LOQ ≤ + <5%)”, the “AG: analgesic” value is listed as “+ (LOQ ≤ + <5%)”, the “AX: anxiolytic” value was “+ (LOQ ≤ + <5%)” and the “CE: cognitive enhancer” value is on record as “+ (LOQ ≤ + <5%)”. Moreover, the “DP: anti-depressant” value is listed as “+ (LOQ ≤ + <5%)”, the “HA: hallucinogen” value was “+ (LOQ ≤ + <5%)”, the “MS: mood stabilizer” value is reported as “+ (LOQ ≤ + <5%)” and the “PS: anti-psychotic” value is “+ (LOQ ≤ + <5%)”. The “SD: sedative hypnotic” value was “+ (LOQ ≤ + <5%)”, the “UN: uncharacterized CNS activity” value is reported as “+ (LOQ ≤ + <5%)” and the “XG: anxiogenic” value was “+ (LOQ ≤ + <5%)”.
In the case of `c1ccc(-c2ccc3c(c2)CCO[C@H]3[C@@H]2CCCN2)nc1` [Compound I-58, 2-((R)-1-((S)-pyrrolidin-2-yl)isochroman-6-yl)pyridine], the “AD: ADHD” value is recorded as “+ (LOQ ≤ + <5%)”, the “AG: analgesic” value was “++ (5% ≤ ++ <25%)”, the “AX: anxiolytic” value is “++ (5% ≤ ++ <25%)” and the “CE: cognitive enhancer” value is on record as “+ (LOQ ≤ + <5%)”. For the same molecule, the “DP: anti-depressant” value is on record as “+++ (25% ≤ +++ <50%)”, the “HA: hallucinogen” value is “+ (LOQ ≤ + <5%)”, the “MS: mood stabilizer” value is on record as “++ (5% ≤ ++ <25%)” and the “PS: anti-psychotic” value is “++ (5% ≤ ++ <25%)”. Moreover, the “SD: sedative hypnotic” value is recorded as “+ (LOQ ≤ + <5%)”, the “UN: uncharacterized CNS activity” value is reported as “+ (LOQ ≤ + <5%)” and the “XG: anxiogenic” value is given as “+ (LOQ ≤ + <5%)”.
On to `CC1(C)CN[C@H]([C@@H]2OCCc3ccccc32)C1` [Compound I-59, (S)-2-((R)-isochroman-1-yl)-4,4-dimethylpyrrolidine], for which the “AD: ADHD” value is reported as “+ (LOQ ≤ + <5%)”, the “AG: analgesic” value is reported as “+ (LOQ ≤ + <5%)”, the “AX: anxiolytic” value was “++ (5% ≤ ++ <25%)” and the “CE: cognitive enhancer” value is on record as “++ (5% ≤ ++ <25%)”. The “DP: anti-depressant” value is given as “++ (5% ≤ ++ <25%)”, the “HA: hallucinogen” value is recorded as “+ (LOQ ≤ + <5%)”, the “MS: mood stabilizer” value is given as “++ (5% ≤ ++ <25%)” and the “PS: anti-psychotic” value is “++ (5% ≤ ++ <25%)”. The “SD: sedative hypnotic” value was “+ (LOQ ≤ + <5%)”, the “UN: uncharacterized CNS activity” value is on record as “+ (LOQ ≤ + <5%)” and the “XG: anxiogenic” value was “+ (LOQ ≤ + <5%)”.
`CC1(C)CN[C@H]([C@H]2OCCc3ccccc32)C1` [Compound I-60, (S)-2-((S)-isochroman-1-yl)-4,4-dimethylpyrrolidine]: the “AD: ADHD” value is on record as “+ (LOQ ≤ + <5%)”, the “AG: analgesic” value is on record as “++ (5% ≤ ++ <25%)”, the “AX: anxiolytic” value is given as “++ (5% ≤ ++ <25%)” and the “CE: cognitive enhancer” value was “++ (5% ≤ ++ <25%)”. Besides, the “DP: anti-depressant” value is on record as “++ (5% ≤ ++ <25%)”, the “HA: hallucinogen” value was “+ (LOQ ≤ + <5%)”, the “MS: mood stabilizer” value is given as “+ (LOQ ≤ + <5%)” and the “PS: anti-psychotic” value is given as “+++ (25% ≤ +++ <50%)”. The “SD: sedative hypnotic” value is “++ (5% ≤ ++ <25%)”, the “UN: uncharacterized CNS activity” value is given as “++ (5% ≤ ++ <25%)” and the “XG: anxiogenic” value was “+ (LOQ ≤ + <5%)”.
Regarding `CC1(C)CN[C@@H]([C@@H]2OCCc3ccccc32)C1` [Compound I-61, (R)-2-((R)-isochroman-1-yl)-4,4-dimethylpyrrolidine], the “AD: ADHD” value was “+ (LOQ ≤ + <5%)”, the “AG: analgesic” value was “+++ (25% ≤ +++ <50%)”, the “AX: anxiolytic” value is given as “++ (5% ≤ ++ <25%)” and the “CE: cognitive enhancer” value was “+ (LOQ ≤ + <5%)”. Besides, the “DP: anti-depressant” value is given as “++ (5% ≤ ++ <25%)”, the “HA: hallucinogen” value is “+ (LOQ ≤ + <5%)”, the “MS: mood stabilizer” value is “++ (5% ≤ ++ <25%)” and the “PS: anti-psychotic” value is on record as “++ (5% ≤ ++ <25%)”. The “SD: sedative hypnotic” value is listed as “+ (LOQ ≤ + <5%)”, the “UN: uncharacterized CNS activity” value is reported as “+ (LOQ ≤ + <5%)” and the “XG: anxiogenic” value is “++ (5% ≤ ++ <25%)”.
As to `CC1(C)CN[C@@H]([C@H]2OCCc3ccccc32)C1` [Compound I-62, (R)-2-((S)-isochroman-1-yl)-4,4-dimethylpyrrolidine], the “AD: ADHD” value is “+ (LOQ ≤ + <5%)”, the “AG: analgesic” value was “++ (5% ≤ ++ <25%)”, the “AX: anxiolytic” value is given as “++ (5% ≤ ++ <25%)” and the “CE: cognitive enhancer” value was “+++ (25% ≤ +++ <50%)”. Also, the “DP: anti-depressant” value was “++ (5% ≤ ++ <25%)”, the “HA: hallucinogen” value was “+ (LOQ ≤ + <5%)”, the “MS: mood stabilizer” value is “+ (LOQ ≤ + <5%)” and the “PS: anti-psychotic” value is on record as “++ (5% ≤ ++ <25%)”. The “SD: sedative hypnotic” value was “+ (LOQ ≤ + <5%)”, the “UN: uncharacterized CNS activity” value was “+ (LOQ ≤ + <5%)” and the “XG: anxiogenic” value is listed as “+ (LOQ ≤ + <5%)”.
